Results taken from US6737383B1, “Herbicidal oxadiazolidines” (priority 1999, dated 2004).

How the values were obtained:
bedstraw = test: Test B pre/postemergence bedstraw; format: in vivo, Galium aparine
Summary of the method: (§1)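 Herbicidal effect was estimated by eye on a ten-point control scale after plants spent twelve to sixteen days in a greenhouse following soil or foliar treatment. Foliar sprays targeted plants at one to four leaves; all doses were formulated in a non-phytotoxic solvent with surfactant.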

surinam grass = test: Test B pre/postemergence surinam grass; format: in vivo, Brachiaria decumbens
Summary of the method: as §1

cocklebur = test: Test B pre/postemergence cocklebur; format: in vivo, Xanthium strumarium
Summary of the method: as §1

corn = test: Test B pre/postemergence corn; format: in vivo, Zea mays
Summary of the method: as §1

crabgrass = test: Test B pre/postemergence crabgrass; format: in vivo, Digitaria sanguinalis
Summary of the method: as §1

giant foxtail = test: Test B pre/postemergence giant foxtail; format: in vivo, Setaria faberii
Summary of the method: as §1

morningglory = test: Test B pre/postemergence morningglory; format: in vivo, Ipomoea hederacea
Summary of the method: as §1

pigweed = test: Test B pre/postemergence pigweed; format: in vivo, Amaranthus retroflexus
Summary of the method: as §1

rape = test: Test B pre/postemergence rape; format: in vivo, Brassica napus
Summary of the method: as §1

soybean = test: Test B pre/postemergence soybean; format: in vivo, Glycine max
Summary of the method: as §1

sugar beet = test: Test B pre/postemergence sugar beet; format: in vivo, Beta vulgaris; details: for Plant response rating, Sugarbeets: Rate 250 g/ha
Summary of the method: as §1

velvetleaf = test: Test B pre/postemergence velvetleaf; format: in vivo, Abutilon theophrasti; details: for Plant response rating, Velvetleaf: Rate 250 g/ha
Summary of the method: as §1

wheat = test: Test B pre/postemergence wheat; format: in vivo, Triticum aestivum; details: for Plant response rating, Wheat: Rate 250 g/ha
Summary of the method: as §1

purple nutsedge = test: Test B pre/postemergence purple nutsedge; format: in vivo, Cyperus rotundus
Summary of the method: as §1

duck salad = test: Test B flood test duck salad; format: in vivo, Heteranthera limosa
Summary of the method: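 Read-out is a visual response score from 0 (no effect) to 10 (complete control), assigned by comparison with untreated controls. Treatment was applied at the 2-leaf stage, and plants stayed in the greenhouse for twelve to sixteen days before scoring.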

[1] = Postemergence, Rate 62 g/ha, scale 0 to 10, 0 is no effect, 10 is complete control
[2] = Postemergence, Rate 250 g/ha, scale 0 to 10, 0 no effect, 10 complete control
[3] = Preemergence, Rate 62 g/ha, scale 0 to 10 (0 no effect, 10 complete control)
[4] = Preemergence, Rate 125 g/ha, scale 0 to 10 (0 no effect, 10 complete control)
[5] = Preemergence, Rate 250 g/ha, scale of 0 to 10 where 0 is no effect and 10 is complete control
[6] = Preemergence, Rate 500 g/ha, scale 0 (no effect) to 10 (complete control)
[7] = Rate 125 g/ha, Postemergence, scale 0 to 10, 0 no effect, 10 complete control
[8] = Rate 500 g/ha, Postemergence, scale 0 to 10, 0 no effect, 10 complete control
[9] = Postemergence, Rate 125 g/ha, scale of 0 to 10 where 0 is no effect and 10 is complete control
[10] = Rate 250 g/ha, Postemergence, scale 0 to 10, 0 is no effect, 10 is complete control
[11] = Preemergence, Rate 125 g/ha, 0 is no effect, 10 is complete control
[12] = Preemergence, scale of 0 to 10 where 0 is no effect and 10 is complete control
[13] = Postemergence, scale 0 to 10, 0 is no effect, 10 is complete control

Cc1nn(C)c(Cl)c1-n1c(=O)on(C(=O)N(c2ccc(F)cc2F)C(C)C)c1=O [Compound 96]
8: Crabgrass plant response rating (crabgrass; [8]) | Giant foxtail plant response rating (giant foxtail; [6]) | Redroot pigweed plant response rating (pigweed; [6])
9: Crabgrass plant response rating (crabgrass; [6])
3: Crabgrass plant response rating (crabgrass; [9]) | Crabgrass plant response rating (crabgrass; [2]) | Plant response rating, Giant foxtail (giant foxtail; [5]) | Giant foxtail plant response rating (giant foxtail; [8]) | Rape plant response rating (rape; [6])
2: Bedstraw plant response rating (bedstraw; [6]) | B. signalgrass plant response rating (surinam grass; [6]) | Cocklebur plant response rating (cocklebur; [8]) | Giant foxtail plant response rating (giant foxtail; [3]) | Plant response rating, Giant foxtail (giant foxtail; [4]) | Morningglory plant response rating (morningglory; [8]) | Sugarbeets plant response rating (sugar beet; [6])
0: Bedstraw plant response rating (bedstraw; [1]) | Bedstraw plant response rating (bedstraw; [2]) | Bedstraw plant response rating (bedstraw; [3]) | Plant response rating, Bedstraw (bedstraw; [4]) | Plant response rating, Bedstraw (bedstraw; [5]) | Bedstraw plant response rating (bedstraw; [7]) | Bedstraw plant response rating (bedstraw; [8]) | B. signalgrass plant response rating (surinam grass; [1]) | B. signalgrass plant response rating (surinam grass; [2]) | B. signalgrass plant response rating (surinam grass; [3]) | Plant response rating, B. signalgrass (surinam grass; [4]) | B. signalgrass plant response rating (surinam grass; [7]) | B. signalgrass plant response rating (surinam grass; Rate 500 g/ha, Postemergence, scale of 0 to 10 where 0 is no effect and 10 is complete control) | Cocklebur plant response rating (cocklebur; [1]) | Cocklebur plant response rating (cocklebur; [9]) | Cocklebur plant response rating (cocklebur; [2]) | Cocklebur plant response rating (cocklebur; [3]) | Plant response rating, Cocklebur (cocklebur; [4]) | Plant response rating, Cocklebur (cocklebur; [5]) | Cocklebur plant response rating (cocklebur; [6]) | Corn plant response rating (corn; [1]) | Corn plant response rating (corn; [9]) | Corn plant response rating (corn; [2]) | Corn plant response rating (corn; [3]) | Plant response rating, Corn (corn; [4]) | Plant response rating, Corn (corn; [5]) | Corn plant response rating (corn; [6]) | Corn plant response rating (corn; [8]) | Giant foxtail plant response rating (giant foxtail; [1]) | Giant foxtail plant response rating (giant foxtail; [9]) | Giant foxtail plant response rating (giant foxtail; [2]) | Morningglory plant response rating (morningglory; [3]) | Plant response rating, Morningglory (morningglory; [4]) | Plant response rating, Morningglory (morningglory; [5]) | Morningglory plant response rating (morningglory; [6]) | Redroot pigweed plant response rating (pigweed; [1]) | Redroot pigweed plant response rating (pigweed; [9]) | Plant response rating, Redroot pigweed (pigweed; [10]) | Redroot pigweed plant response rating (pigweed; [8]) | Rape plant response rating (rape; [1]) | Rape plant response rating (rape; [9]) | Rape plant response rating (rape; [2]) | Rape plant response rating (rape; [3]) | Plant response rating, Rape (rape; [4]) | Plant response rating, Rape (rape; [5]) | Rape plant response rating (rape; [8]) | Soybean plant response rating (soybean; [3]) | Plant response rating, Soybean (soybean; [4]) | Plant response rating, Soybean (soybean; [5]) | Soybean plant response rating (soybean; [6]) | Sugarbeets plant response rating (sugar beet; [1]) | Sugarbeets plant response rating (sugar beet; [9]) | Sugarbeets plant response rating (sugar beet; [3]) | Sugarbeets plant response rating (0 to 10 scale) (sugar beet; [11]) | Plant response rating, Sugarbeets (sugar beet; [12]) | Plant response rating, Sugarbeets (sugar beet; [13]) | Sugarbeets plant response rating (sugar beet; [8]) | Velvetleaf plant response rating (velvetleaf; [1]) | Velvetleaf plant response rating (velvetleaf; [9]) | Velvetleaf plant response rating (velvetleaf; [3]) | Velvetleaf plant response rating (0 to 10 scale) (velvetleaf; [11]) | Plant response rating, Velvetleaf (velvetleaf; [12]) | Velvetleaf plant response rating (velvetleaf; [6]) | Plant response rating, Velvetleaf (velvetleaf; [13]) | Velvetleaf plant response rating (velvetleaf; [8]) | Wheat plant response rating (wheat; [1]) | Wheat plant response rating (wheat; [9]) | Wheat plant response rating (wheat; [3]) | Wheat plant response rating (0 to 10 scale) (wheat; [11]) | Plant response rating, Wheat (wheat; [12]) | Wheat plant response rating (wheat; [6]) | Plant response rating, Wheat (wheat; [13]) | Wheat plant response rating (wheat; [8]) | Nutsedge plant response rating (purple nutsedge; [1]) | Nutsedge plant response rating (purple nutsedge; [9]) | Nutsedge plant response rating (purple nutsedge; [2]) | Nutsedge plant response rating (purple nutsedge; [3]) | Plant response rating, Nutsedge (purple nutsedge; [4]) | Plant response rating, Nutsedge (purple nutsedge; [5]) | Nutsedge plant response rating (purple nutsedge; [6]) | Nutsedge plant response rating (purple nutsedge; [8]) | Ducksalad plant response rating (duck salad; Postemergence (flood test species), Rate 125 g/ha, scale of 0 to 10 where 0 is no effect and 10 is complete control) | Ducksalad plant response rating (duck salad; [1]) | Ducksalad plant response rating (duck salad; Rate 500 g/ha, listed under Postemergence (flood test species), scale 0 to 10, 0 no effect, 10 complete control) | Ducksalad plant response rating (duck salad; flood test, listed under Postemergence, Rate 250 g/ha, scale 0 to 10, 0 no effect, 10 complete control)
6: Plant response rating, Redroot pigweed (pigweed; [4])
7: Plant response rating, Crabgrass (crabgrass; [5]) | Plant response rating, Redroot pigweed (pigweed; [5])
4: Plant response rating, Crabgrass (crabgrass; [4])
1: Plant response rating, B. signalgrass (surinam grass; [5]) | Crabgrass plant response rating (crabgrass; [1]) | Crabgrass plant response rating (crabgrass; [3]) | Morningglory plant response rating (morningglory; [1]) | Morningglory plant response rating (morningglory; [9]) | Morningglory plant response rating (morningglory; [2]) | Soybean plant response rating (soybean; [1]) | Soybean plant response rating (soybean; [9]) | Plant response rating, Soybean (soybean; [10]) | Soybean plant response rating (soybean; [8])
